Assays:
Androgen receptor [1] = target: T1, Androgen receptor (Homo sapiens, UniProt P10275); assay: Antagonist activity against pSG5-tagged human androgen receptor expressed in COS1 cells assessed as reduction in receptor-mediated transcriptional activity by AR-regulated rat probasin promoter fragment driven firefly luciferase reporter assay; type: cell-based, COS-1
T1 sequence (P10275 whole entry): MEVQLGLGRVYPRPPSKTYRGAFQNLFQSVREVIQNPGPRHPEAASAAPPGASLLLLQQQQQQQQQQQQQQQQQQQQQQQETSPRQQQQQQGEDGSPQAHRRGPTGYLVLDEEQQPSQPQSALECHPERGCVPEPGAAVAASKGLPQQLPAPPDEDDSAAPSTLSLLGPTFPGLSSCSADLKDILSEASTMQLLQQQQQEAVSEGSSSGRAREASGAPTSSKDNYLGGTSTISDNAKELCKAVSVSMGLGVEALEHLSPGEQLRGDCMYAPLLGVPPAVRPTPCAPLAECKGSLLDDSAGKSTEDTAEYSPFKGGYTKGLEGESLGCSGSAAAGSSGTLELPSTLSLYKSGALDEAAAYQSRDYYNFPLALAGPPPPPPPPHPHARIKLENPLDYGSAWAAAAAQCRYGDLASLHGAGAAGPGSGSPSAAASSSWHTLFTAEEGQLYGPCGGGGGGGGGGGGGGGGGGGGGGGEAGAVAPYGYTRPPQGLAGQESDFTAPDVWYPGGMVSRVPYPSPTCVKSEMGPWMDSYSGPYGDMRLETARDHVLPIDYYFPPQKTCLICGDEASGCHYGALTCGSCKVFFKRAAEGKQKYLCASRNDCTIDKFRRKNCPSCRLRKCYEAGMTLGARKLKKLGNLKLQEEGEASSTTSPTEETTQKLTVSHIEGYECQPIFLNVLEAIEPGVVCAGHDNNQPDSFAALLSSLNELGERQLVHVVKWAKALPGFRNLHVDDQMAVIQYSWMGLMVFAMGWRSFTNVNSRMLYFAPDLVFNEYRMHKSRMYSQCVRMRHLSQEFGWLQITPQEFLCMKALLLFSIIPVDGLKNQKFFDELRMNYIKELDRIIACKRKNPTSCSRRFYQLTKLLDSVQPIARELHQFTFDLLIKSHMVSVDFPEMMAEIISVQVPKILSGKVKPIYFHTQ

Androgen receptor [2] = target: T1, Androgen receptor; assay: Displacement of [3H]R1881 from pSG5-tagged human androgen receptor expressed in COS1 cells assessed as relative binding inhibition; type: cell-based, COS-1

SMILES | IC50 (Androgen receptor [1]) | IC50 (Androgen receptor [2])
N#Cc1ccc(N2[C@H]3CC[C@H]2CC(NCc2ccccc2)C3)cc1C(F)(F)F (relative stereo) | 233 nM | 233 nM
Cc1c(N2C3CCC2CC(C)(O)C3)ccc(C#N)c1Cl (stereo unspecified) | 2.11 nM | 2.11 nM
CCS(=O)(=O)NC1C[C@@H]2CC[C@@H](C1)N2c1ccc(C#N)c(C(F)(F)F)c1 (relative stereo) | 2040 nM | 2040 nM
N#Cc1ccc(N2[C@@H]3CC[C@H]2C[C@@H](O)C3)cc1Cl | 31.7 nM | 31.7 nM
CS(=O)(=O)NC1C[C@@H]2CC[C@@H](C1)N2c1ccc(C#N)c(C(F)(F)F)c1 (relative stereo) | 2650 nM | 2650 nM
N#Cc1ccc(N2C3CCC2CC(=O)C3)cc1C(F)(F)F | 66 nM | 66 nM
N#Cc1ccc(N2[C@H]3CC[C@H]2CC(O)C3)cc1C(F)(F)F (relative stereo) | 39.8 nM | 39.8 nM
CC1(O)C[C@@H]2CC[C@@H](C1)N2c1ccc(C#N)c(C(F)(F)F)c1 (relative stereo) | 29.3 nM | 29.3 nM

Source: ChEMBL document CHEMBL3407333, “Synthesis and biological evaluation of second-generation tropanol-based androgen receptor modulators” (J Med Chem, 2015)
